How the values were obtained:
YU2 HIV-1 virus = test: Humanized mice infected with YU2 HIV-1 virus, viral load; format: in vivo, mouse (NSG humanized); conditions: after 30 days of 40 mg/kg daily
Procedure: (§1) FIG. 7. Efficacy of Compound 1 to inhibit viral replication in humanized mice. A) Reconstituted SCID mice were infected with JRCSF HIV-1 strain by intraperitoneal injection. Control group received by gavage labrafil and 5% DMSO (n=15) and treated group 20 mg/kg b.i.d of Compound 1 in labrafil and 5% DMSO (n=14) for 15 days. Two independent experiments were performed with 5 and 10 reconstituted mice for each group. Viral load was assessed by measuring viral RNA using the Amplicor HIV-1 Monitor from Roche. B) FACS analysis was performed on peritoneal wash at day 15 post-treatment to assess the CD8/CD4 ratio. C) Engrafted NSG humanized mice were treated by oral gavage with Compound 1 at either 20 mg or 40 mg/kg once a day for 30 days and indicated lymphocyte populations (CD45+; CD4+ and CD8+) were monitored by FACS analysis. […] Viral load was assessed by measuring viral RNA using the Amplicor HIV-1 Monitor from Roche. […]
(§2) Briefly, newborn (<5 days old) NSG mice received sub-lethal (1 Gy) total body irradiation with a Cs source, and then received […] transduced or untransduced CD34+ human HSCs using a 50 μl Hamilton syringe via the intrahepatic (i.h.) route. […] Mice were monitored three times a week for symptoms or signs of adverse events, according to a standard score sheet. […]

[1] = Lymphocyte populations in engrafted humanized mice treated for 30 days; format: in vivo; conditions: one month, 20 mg/kg or 40 mg/kg, compared to controls without treatment
Procedure: as §1, §2

[2] = system: HIV RNA splicing in infected PBMCs; test: Sequence capture and 454 pyrosequencing of HIV RNA in infected PBMCs; format: cell-based, HIV-1
Procedure: To test whether Compound 1 influences the splicing of HIV RNA in infected cells, an array-based sequence capture was performed using a customized library probes targeting HIV sequences to get rid of cellular RNA. The probes were used to capture cDNAs prepared from infected treated and untreated PBMCs. After double capture, libraries were prepared and sequenced using 454 pyrosequencing (according to GS junior method manual). The average size of the reads around 400 bp allowed unambiguous assembly of viral genome from untreated sample (after 3 and 6 days of infection) using reads that were not mapped to human genome (hg19). All sequencing data were analysed using gsnap, as detailed in Wu et al. (Fast and SNP-tolerant detection of complex variants and splicing in short reads. Bioinformatics 26, 873-881 (2010)).

[3] = system: alternative splicing events of endogenous genes; test: RT-PCR analysis of global alternative splicing events in PBMC samples; format: cell-based, human
Source text: Quantification of non-viral RNA splicing is achieved using the protocols detailed in Klinck et al. (Multiple alternative splicing markers for ovarian cancer. Cancer Res. 68, 657-663 (2008)) and Venables et al. (Cancer-associated regulation of alternative splicing. Nat. Struct. Mol. Biol. 16, 670-676 (2009)).
These 382 alternative splicing events (ASEs) represent a high throughput random snapshot of global alterations of alternative splicing. High throughput PCR analysis of these (essentially random) 382 ASEs on multiple PBMC samples was performed, either from untreated (cells) or treated with DMSO, Compound 1 or with the control antiviral drug (Darunavir). Analysis of the data allowed further stringent quality controls; ASEs were only considered if >75% of the products ran at the expected mobilities (i.e. if the reactions were pure) and if total expected PCR concentration was higher than 20 nM (i.e. if the reactions were strong) which led to 264 remaining ASEs.

PBMCs = test: Lymphocyte populations in treated PBMCs; format: cell-based, human
primary macrophages = test: Cell viability of primary macrophages under treatment; format: cell-based, human; conditions: data not shown

## FC(F)(F)Oc1ccc(Nc2ccc3cccc(Cl)c3n2)cc1 [Compound 1, 8-chloro-N-(4-(trifluoromethoxy)phenyl)quinolin-2-amine]
YU2 HIV-1 virus
  time the viral load remained low after treatment termination: at least 50 days
[1]
  engraftment values of CD45+ cells and ratio of CD8+/CD4+: neither alters engraftment values of CD45+ cells nor the ratio of CD8+/CD4+
[2]; 3 days post infection
  coverage of viral genome: 4149 reads
[2]; 3 days post-infection
  fraction of reads corresponding to splice junctions: 17.4%
[2]; 6 days post-infection
  fraction of reads corresponding to splice junctions: 13.3%
  number of reads: 20 585
[3]
  global effect on pre-mRNA splicing: no global effect
PBMCs
  effect on the different populations of lymphocytes present in PBMCs: did not alter
Primary macrophages
  cell viability: not decreased
